{
  "source": "patent US11623924B2",
  "about": "“Modulators of alpha-1 antitrypsin” (Vertex Pharmaceuticals Incorporated, priority 2018, dated 2023)",
  "data": [
    {"target": "T1, NL20 human bronchial epithelial cells expressing human Z-AAT (Homo sapiens, UniProt P01009, E366K)", "T1 construct": "expressed in transfected cells; host or cells: NL20 human bronchial epithelial cells (NL20-SI line, doxycycline added)", "T1 sequence (P01009 25-418 E366K)": "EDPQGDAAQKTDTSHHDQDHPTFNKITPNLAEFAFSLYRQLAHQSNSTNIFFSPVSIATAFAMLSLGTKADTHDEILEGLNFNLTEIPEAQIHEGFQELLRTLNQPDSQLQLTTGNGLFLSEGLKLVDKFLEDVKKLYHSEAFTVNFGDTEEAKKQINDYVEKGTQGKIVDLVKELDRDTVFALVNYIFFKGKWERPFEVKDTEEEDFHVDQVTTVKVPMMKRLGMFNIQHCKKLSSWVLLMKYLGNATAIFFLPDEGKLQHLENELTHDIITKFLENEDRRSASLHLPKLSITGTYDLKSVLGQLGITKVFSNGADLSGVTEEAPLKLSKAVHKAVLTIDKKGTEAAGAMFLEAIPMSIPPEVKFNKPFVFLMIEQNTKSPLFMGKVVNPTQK", "assay": "AAT Function Assay (MSD Assay NL20-SI Cell Line)", "assay_type": "cell-based", "details": "NL20 Func. (EC50), functionally active AAT (AAT-hNE complex) in supernatant of NL20 cells expressing human Z-AAT", "method": "(§1) A. AAT Function Assay (MSD Assay NL20-SI Cell Line)\n(§2) Alpha-1 antitrypsin (AAT) is a SERPIN (serine protease inhibitor) that inactivates enzymes by binding to them covalently. This assay measured the amount of functionally active AAT in a sample in the presence of the disclosed compounds 1-215 by determining the ability of AAT to form an irreversible complex with human neutrophil Elastase (hNE). In practice, the sample (cell supernatant, blood sample, or other) was incubated with excess hNE to allow AAT-Elastase complex to be formed with all functional AAT in the sample. This complex was then captured to a microplate coated with an anti-AAT antibody. The complex captured to the plate was detected with a labeled anti-Elastase antibody and quantitated using a set of AAT standards spanning the concentration range present in the sample. Meso Scale Discovery (MSD) plate reader, Sulfo-tag labeling, and microplates were used to provide high sensitivity and wide dynamic range.\n(§3) • 1. Harvest NL20 human bronchial epithelial cells expressing human Z-AAT in OptiMEM™ containing Pen/Strep (P/S) • 2. Seed at 16,000 cells/well in 30 μL (384 well plate) • 3. Centrifuge plates briefly up to speed (1200 rpm) and place into 37° C. incubator overnight Day 2: Compound Addition and Coating Plates with Capture Antibody Compound Addition: • 1. Dispense 40 μL of OptiMEM™ (P/S) with doxycycline (1:1000 stock=0.1 μM final) to each well of the compound plate using a multidrop Combi in hood • 2. Remove cell plate from incubator, flip/blot and take immediately to Bravo to transfer compounds • 3. Return plates to incubator overnight Coat MSD Plates • 1. Dilute capture antibody (Polyclonal Goat anti-AAT) to 5 μg/mL (1:200) in PBS (no BSA). • 2. Dispense 25 μL of diluted capture antibody into all wells of MSD 384-well High Bind plate using the Multidrop equipped with a standard cassette. • 3. Incubate overnight at 4° C. Prepare Blocker A (BSA) Solutions • 1. Prepare solution of 5% MSD Blocker A (BSA) following the manufacturer's instructions. • 2. Further dilute the 5% MSD Blocker A in PBS to 1% (Blocker A) as needed. Day 3: Run MSD Assay\n(§4) Block Plates • 1. Wash plate 1× with 50 μL Wash buffer (PBS+0.5% Tween 20), and adds 35 μL 5% Block A buffer to block non-specific binding on washer dispenser • 2. Rotate plates on shaker for 1 hour at 600 rpm\n(§5) Prepare M-AAT Standards • 1. Dilute M-AAT stock to 1.6 μg/mL in 1% BSA Blocker A (Stock in −70° C.); then prepare 12×1:2 serial dilutions in 1% Blocker A • 2. The top starting final concentration on MSD plate is 320 ng/mL. These dilutions correspond to a final concentration of 320, 160, 80, 40, 20, 10, 5, 2.5, 1.25, 0.625, 0.312, 0.156 ng/mL.\n(§6) Dilution Plate • 1. Add 80 μL of 1% Assay buffer to all wells except columns 1/24 (standards) with Multidrop Combi • 2. Add diluted standards to columns 1 and 24 • 3. Centrifuge dilution plates 1200 rpm briefly\n(§7) Cell Plate • 1. Aspirate columns which will have the standards from the cell plates in the hood using 16-pin aspirator\n(§8) Prepare Human Neutrophil Elastase (hNE) • 1. Prepare 1 μg/mL Human Neutrophil Elastase by diluting in 1% Blocker A. • a. Small 100 μg vial—add 1 mL PBS (100 μg/mL) • i. This can then be diluted 1:100 in 1% Assay Buffer for a final 1 μg/mL concentration\n(§9) MSD—Add hNE (20 μL/well) • 1. After the MSD plate has blocked for at least 1 hour, wash plate 1× with 50 μL Wash buffer (PBS+0.5% Tween 20) and then add 20 μL hNE to each well\n(§10) Bravo—Cell Plate—Dilution Plate—MSD Plate\n(§11) Using the Bravo aspirate 10 μL from the cell plate, transfer to the dilution plate (9-fold dilution)\n(§12) • 1. Mix 25 μL 3×, then aspirate 5 μL, transfer to MSD plate (5-fold dilution) • 2. Mix 10 μL 3×. Total dilution is 45 fold. • 3. Shake plates at 600 rpm for 1.5 hours\n(§13) Add Functional detection hNE antibody • 1. Wash plate 1× with wash buffer • 2. […]", "units": {"EC50": "µM"}, "values": [
      {"compound": "CC(C)c1c(CCC(=O)O)c2cc3[nH]ncc3nc2n1-c1ccc(F)cc1", "note": "[Compound 202, 3-[4-(4-fluorophenyl)-5-isopropyl-2,4,10,11-tetrazatricyclo[7.3.0.03,7]dodeca-1,3(7),5,8,11-pentaen-6-yl]propanoic Acid]", "EC50": "> 3"}
    ]},
    {"target": "T1, NL20 human bronchial epithelial cells expressing human Z-AAT", "assay": "AAT Function Assay (MSD Assay NL20-SI Cell Line)", "assay_type": "cell-based", "details": "functionally active AAT (AAT-hNE complex) in supernatant of NL20 cells expressing human Z-AAT; read-out: NL20 Func. (EC50)", "method": "as §1, §2, §3, §4, §5, §6, §7, §8, §9, §10, §11, §12, §13", "units": {"EC50": "µM"}, "values": [
      {"compound": "COCC(C)(C)c1c(CC2CCS(=O)(=O)CC2)c2cc3[nH]ncc3cc2n1-c1ccc(F)cc1", "note": "[Compound 182]", "EC50": "1.16 to 3"},
      {"compound": "CC(C)c1c(CCC(=O)OC2O[C@H](C(=O)O)[C@@H](O)[C@H](O)[C@H]2O)c2cc3[nH]ncc3cc2n1-c1ccc(F)cc1", "note": "(stereo in doubt) [Compound 173, (2S,3S,4S,5R)-6-[3-[5-(4-fluorophenyl)-6-isopropyl-1H-pyrrolo[2,3-f]indazol-7-yl]propanoyloxy]-3,4,5-trihydroxy-tetrahydropyran-2-carboxylic Acid]", "EC50": "> 3"},
      {"compound": "Cc1cc(-n2c(C3CCOCC3)c([C@H]3C[C@@H](C(=O)O)C3)c3cc4[nH]ncc4cc32)ccc1F", "note": "[Compound 99]", "EC50": "> 3"},
      {"compound": "CC(C)c1c(CCC(=O)O)c2cc3[nH]ncc3cc2n1-c1ccccc1", "note": "[Compound 41, 3-(6-isopropyl-5-phenyl-1H-pyrrolo[2,3-f]indazol-7-yl)propanoic Acid]", "EC50": "1.16 to 3"},
      {"compound": "O=C(O)C1CC2(C1)CC(c1c(C3CCOCC3)n(-c3ccc(F)cc3)c3cc4cn[nH]c4c(F)c13)C2", "note": "(racemic) [Compound 135, 6-[8-fluoro-5-(4-fluorophenyl)-6-tetrahydropyran-4-yl-1H-pyrrolo[2,3-f]indazol-7-yl]spiro[3.3]heptane-2-carboxylic acid]", "EC50": "< 1.16"},
      {"compound": "CC1(c2c(S(C)(=O)=O)c3cc4[nH]ncc4cc3n2-c2ccc(F)cc2)COC1", "note": "[Compound 197, 5-(4-fluorophenyl)-6-(3-methyloxetan-3-yl)-7-methylsulfonyl-1H-pyrrolo[2,3-f]indazole]", "EC50": "> 3"},
      {"compound": "C=C(C)c1c(C23CC(C(=O)OC)(C2)C3)c2cc3[nH]ncc3cc2n1-c1ccc(F)cc1", "note": "[Compound 207, methyl 3-[5-(4-fluorophenyl)-6-isopropenyl-1H-pyrrolo[2,3-f]indazol-7-yl]bicyclo[1.1.1]pentane-1-carboxylate]", "EC50": "> 3"},
      {"compound": "CC(C)(CC#N)c1c(CCC(=O)O)c2cc3[nH]ncc3cc2n1-c1ccc(F)cc1", "note": "[Compound 190, 3-[6-(2-cyano-1,1-dimethyl-ethyl)-5-(4-fluorophenyl)-1H-pyrrolo[2,3-f]indazol-7-yl]propanoic Acid]", "EC50": "> 3"},
      {"compound": "Cc1cc(-n2c(C(C)C)c(CCC(=O)O)c3c(C)c4[nH]ncc4cc32)ccc1F", "note": "[Compound 51, 3-[5-(4-fluoro-3-methyl-phenyl)-6-isopropyl-8-methyl-1H-pyrrolo[2,3-f]indazol-7-yl]propanoic acid]", "EC50": "1.16 to 3"},
      {"compound": "Cc1cc(-n2c(C(C)C)c(C3CC4(CC(C(=O)O)C4)C3)c3c(F)c4[nH]nc(C)c4cc32)ccc1F", "note": "(racemic) [Compound 59, 6-[8-fluoro-5-(4-fluoro-3-methyl-phenyl)-6-isopropyl-3-methyl-1H-pyrrolo[2,3-f]indazol-7-yl]spiro[3.3]heptane-2-carboxylic Acid]", "EC50": "< 1.16"},
      {"compound": "[2H]C([2H])(Cc1c(C(C)C)n(-c2ccc(F)cc2)c2cc3cn[nH]c3cc12)C(=O)O", "note": "[Compound 170, 2,2-dideuterio-3-[5-(4-fluorophenyl)-6-isopropyl-1H-pyrrolo[2,3-f]indazol-7-yl]propanoic Acid]", "EC50": "1.16 to 3"},
      {"compound": "Cc1cc(-n2c(C3CCOCC3)c(CCCC(=O)O)c3cc4[nH]ncc4cc32)ccc1F", "note": "[Compound 88]", "EC50": "1.16 to 3"},
      {"compound": "Cc1cc(-n2c(C3CCOCC3)c(CC3CC3C(=O)O)c3cc4[nH]ncc4cc32)ccc1F", "note": "(single isomer, unassigned) [Compound 102]", "EC50": "> 3"},
      {"compound": "CNS(=O)(=O)CCc1c(C2CCOCC2)n(-c2ccc(F)cc2)c2cc3cn[nH]c3cc12", "note": "[Compound 159, 2-[5-(4-fluorophenyl)-6-tetrahydropyran-4-yl-1H-pyrrolo[2,3-f]indazol-7-yl]-N-methyl-ethanesulfonamide]", "EC50": "1.16 to 3"},
      {"compound": "O=C(O)[C@H]1CC[C@@H](Cc2c(C3CCOCC3)n(-c3ccc(F)c(F)c3)c3cc4cn[nH]c4cc23)CC1", "note": "(single isomer, unassigned) [Compound 73]", "EC50": "< 1.16"},
      {"compound": "O=C(O)C1CC(Cc2c(C3CCOCC3)n(-c3ccc(F)c(Cl)c3)c3cc4cn[nH]c4cc23)C1", "note": "(single isomer, unassigned) [Compound 80]", "EC50": "< 1.16"},
      {"compound": "Cc1cc(-n2c(C(C)C)c(C(C)CC(=O)O)c3cc4[nH]ncc4cc32)ccc1F", "note": "(single isomer, unassigned) [Compound 27]", "EC50": "< 1.16"},
      {"compound": "Cc1cc(-n2c(C(C)C)c(N3CCOCC3=O)c3cc4[nH]ncc4cc32)ccc1F", "note": "[Compound 9, 4-[5-(4-fluoro-3-methyl-phenyl)-6-isopropyl-1H-pyrrolo[2,3-f]indazol-7-yl]morpholin-3-one]", "EC50": "> 3"},
      {"compound": "CC(C)c1c(/C=C/C(=O)O)c2cc3[nH]ncc3cc2n1-c1ccc(F)cc1", "note": "[Compound 31, (E)-3-[5-(4-fluorophenyl)-6-isopropyl-1H-pyrrolo[2,3-f]indazol-7-yl]prop-2-enoic Acid]", "EC50": "1.16 to 3"},
      {"compound": "O=C(O)[C@H]1CC[C@H](Cc2c(C3CCOCC3)n(-c3ccc(F)c(F)c3)c3cc4cn[nH]c4cc23)CC1", "note": "(single isomer, unassigned) [Compound 74]", "EC50": "1.16 to 3"},
      {"compound": "CC(C)c1c(-c2ccc(F)cc2)c2cc3cn[nH]c3cc2n1CCC(=O)O", "note": "[Compound 205, 3-[5-(4-fluorophenyl)-6-isopropyl-1H-pyrrolo[3,2-f]indazol-7-yl]propanoic Acid]", "EC50": "1.16 to 3"},
      {"compound": "Cc1cc(-n2c(C3CCOCC3)c(CCC(=O)O)c3cc4[nH]nc(C)c4cc32)ccc1F", "note": "[Compound 125, 3-[5-(4-fluoro-3-methyl-phenyl)-3-methyl-6-tetrahydropyran-4-yl-1H-pyrrolo[2,3-f]indazol-7-yl]propanoic Acid]", "EC50": "> 3"},
      {"compound": "O=C(O)[C@H]1CC[C@H](c2c(C3CCOCC3)n(-c3ccc(F)cc3)c3cc4cn[nH]c4cc32)CC1", "note": "[Compound 120]", "EC50": "< 1.16"},
      {"compound": "Cc1cc(-n2c(C(C)C)c(CCC(=O)O)c3c(F)c4[nH]ncc4cc32)ccc1F", "note": "[Compound 52, 3-[8-fluoro-5-(4-fluoro-3-methyl-phenyl)-6-isopropyl-1H-pyrrolo[2,3-f]indazol-7-yl]propanoic Acid]", "EC50": "< 1.16"},
      {"compound": "Cc1cc(-n2c(C(C)C)c(N3CCCC3=O)c3cc4[nH]ncc4cc32)ccc1F", "note": "[Compound 8, 1-[5-(4-fluoro-3-methyl-phenyl)-6-isopropyl-1H-pyrrolo[2,3-f]indazol-7-yl]pyrrolidin-2-one]", "EC50": "> 3"},
      {"compound": "Fc1ccc(-n2c(C3CCOCC3)cc3cc4[nH]ncc4cc32)cc1", "note": "[Compound 60, 5-(4-fluorophenyl)-6-tetrahydropyran-4-yl-1H-pyrrolo[2,3-f]indazole]", "EC50": "> 3"},
      {"compound": "Cc1cc(-n2c(C(C)C)c(I)c3cc4[nH]ncc4cc32)ccc1F", "note": "[Compound 1, 5-(4-fluoro-3-methyl-phenyl)-7-iodo-6-isopropyl-1H-pyrrolo[2,3-f]indazole]", "EC50": "1.16 to 3"},
      {"compound": "Cc1cc(-n2c(C3CCOCC3)c([C@H]3C[C@H](CC(=O)O)C3)c3cc4[nH]ncc4cc32)ccc1F", "note": "(single isomer, unassigned) [Compound 94]", "EC50": "1.16 to 3"}
    ]}
  ]
}
